Data: PubChem BioAssay AID1259407 (Chemical Carcinogenesis Research Information System (CCRIS), 2018)
Activity calls are given as the source filed them. No rule for the calls is given here.

Test system: CCRIS mutagenicity, Ames/micronucleus/aberration tests
Test: CCRIS mutagenicity studies

In the case of `CN(C)CCN(Cc1cccs1)c1ccccn1`, the mutagenic call (Test System: AMES SALMONELLA TYPHIMURIUM, Strain/Indicator: TA97, Metabolic Activation: RAT, LIVER, S-9, AROCLOR 1254, Method: STANDARD PLATE) was “inactive; negative”, the mutagenic call (Test System: AMES SALMONELLA TYPHIMURIUM, Strain/Indicator: TA98, Metabolic Activation: HAMSTER LIVER S-9, AROCLOR 1254 (10%), Method: PREINCUBATION) was “inactive; negative” and the mutagenic call (Test System: AMES SALMONELLA TYPHIMURIUM, Strain/Indicator: TA98, Metabolic Activation: NONE, Method: PREINCUBATION) was “inactive; negative”. The mutagenic call (Test System: AMES SALMONELLA TYPHIMURIUM, Strain/Indicator: TA98, Metabolic Activation: NONE, Method: STANDARD PLATE) was “inactive; negative”, the mutagenic call (Test System: AMES SALMONELLA TYPHIMURIUM, Strain/Indicator: TA98, Metabolic Activation: RAT LIVER S-9, AROCLOR 1254 (10%), Method: PREINCUBATION) was “inactive; negative” and the mutagenic call (Test System: AMES SALMONELLA TYPHIMURIUM, Strain/Indicator: TA98, Metabolic Activation: RAT, LIVER, S-9, AROCLOR 1254, Method: PREINCUBATION) was “inactive; negative”. The mutagenic call (Test System: AMES SALMONELLA TYPHIMURIUM, Strain/Indicator: TA98, Metabolic Activation: RAT, LIVER, S-9, AROCLOR 1254, Method: STANDARD PLATE) was “inactive; negative”, the mutagenic call (Test System: AMES SALMONELLA TYPHIMURIUM, Strain/Indicator: TA98, Metabolic Activation: RAT, LIVER, S-9, Method: STANDARD PLATE) was “inactive; negative” and the mutagenic call (Test System: AMES SALMONELLA TYPHIMURIUM, Strain/Indicator: TA98, Method: STANDARD PLATE) was “inactive; negative”. The mutagenic call (Test System: AMES SALMONELLA TYPHIMURIUM, Strain/Indicator: TA100, Metabolic Activation: HAMSTER LIVER S-9, AROCLOR 1254 (10%), Method: PREINCUBATION) was “inactive; negative”, the mutagenic call (Test System: AMES SALMONELLA TYPHIMURIUM, Strain/Indicator: TA100, Metabolic Activation: NONE, Method: PREINCUBATION) was “inactive; negative” and the mutagenic call (Test System: AMES SALMONELLA TYPHIMURIUM, Strain/Indicator: TA100, Metabolic Activation: NONE, Method: STANDARD PLATE) was “inactive; negative”. The mutagenic call (Test System: AMES SALMONELLA TYPHIMURIUM, Strain/Indicator: TA100, Metabolic Activation: RAT LIVER S-9, AROCLOR 1254 (10%), Method: PREINCUBATION) was “inactive; negative”, the mutagenic call (Test System: AMES SALMONELLA TYPHIMURIUM, Strain/Indicator: TA100, Metabolic Activation: RAT, LIVER, S-9, AROCLOR 1254, Method: STANDARD PLATE) was “inactive; negative” and the mutagenic call (Test System: AMES SALMONELLA TYPHIMURIUM, Strain/Indicator: TA100, Metabolic Activation: RAT, LIVER, S-9, Method: STANDARD PLATE) was “inactive; negative”. For the same compound, the mutagenic call (Test System: AMES SALMONELLA TYPHIMURIUM, Strain/Indicator: TA100, Method: STANDARD PLATE) was “inactive; negative”, the mutagenic call (Test System: AMES SALMONELLA TYPHIMURIUM, Strain/Indicator: TA104, Metabolic Activation: NONE, Method: STANDARD PLATE) was “inactive; negative” and the mutagenic call (Test System: AMES SALMONELLA TYPHIMURIUM, Strain/Indicator: TA104, Metabolic Activation: RAT, LIVER, S-9, AROCLOR 1254, Method: STANDARD PLATE) was “inactive; negative”. The mutagenic call (Test System: AMES SALMONELLA TYPHIMURIUM, Strain/Indicator: TA104, Metabolic Activation: RAT, LIVER, S-9, Method: STANDARD PLATE) was “inactive; negative”, the mutagenic call (Test System: AMES SALMONELLA TYPHIMURIUM, Strain/Indicator: TA104, Method: STANDARD PLATE) was “inactive; negative” and the mutagenic call (Test System: AMES SALMONELLA TYPHIMURIUM, Strain/Indicator: TA1535, Metabolic Activation: HAMSTER LIVER S-9, AROCLOR 1254 (10%), Method: PREINCUBATION) was “inactive; negative”. For the same compound, the mutagenic call (Test System: AMES SALMONELLA TYPHIMURIUM, Strain/Indicator: TA1535, Metabolic Activation: NONE, Method: PREINCUBATION) was “inactive; negative”, the mutagenic call (Test System: AMES SALMONELLA TYPHIMURIUM, Strain/Indicator: TA1535, Metabolic Activation: RAT LIVER S-9, AROCLOR 1254 (10%), Method: PREINCUBATION) was “inactive; negative” and the mutagenic call (Test System: AMES SALMONELLA TYPHIMURIUM, Strain/Indicator: TA1535, Metabolic Activation: RAT, LIVER, S-9, AROCLOR 1254, Method: STANDARD PLATE) was “inactive; negative”. The mutagenic call (Test System: AMES SALMONELLA TYPHIMURIUM, Strain/Indicator: TA1535, Metabolic Activation: RAT, LIVER, S-9, Method: STANDARD PLATE) was “inactive; negative”, the mutagenic call (Test System: AMES SALMONELLA TYPHIMURIUM, Strain/Indicator: TA1535, Method: STANDARD PLATE) was “inactive; negative” and the mutagenic call (Test System: AMES SALMONELLA TYPHIMURIUM, Strain/Indicator: TA1537, Metabolic Activation: HAMSTER LIVER S-9, AROCLOR 1254 (10%), Method: PREINCUBATION) was “inactive; negative”. The mutagenic call (Test System: AMES SALMONELLA TYPHIMURIUM, Strain/Indicator: TA1537, Metabolic Activation: NONE, Method: PREINCUBATION) was “inactive; negative”, the mutagenic call (Test System: AMES SALMONELLA TYPHIMURIUM, Strain/Indicator: TA1537, Metabolic Activation: NONE, Method: STANDARD PLATE) was “inactive; negative” and the mutagenic call (Test System: AMES SALMONELLA TYPHIMURIUM, Strain/Indicator: TA1537, Metabolic Activation: RAT LIVER S-9, AROCLOR 1254 (10%), Method: PREINCUBATION) was “inactive; negative”. For the same compound, the mutagenic call (Test System: AMES SALMONELLA TYPHIMURIUM, Strain/Indicator: TA1537, Metabolic Activation: RAT, LIVER, S-9, AROCLOR 1254, Method: STANDARD PLATE) was “inactive; negative”, the mutagenic call (Test System: AMES SALMONELLA TYPHIMURIUM, Strain/Indicator: TA1537, Metabolic Activation: RAT, LIVER, S-9, Method: STANDARD PLATE) was “inactive; negative” and the mutagenic call (Test System: AMES SALMONELLA TYPHIMURIUM, Strain/Indicator: TA1537, Method: STANDARD PLATE) was “inactive; negative”. The mutagenic call (Test System: AMES SALMONELLA TYPHIMURIUM, Strain/Indicator: TA1538, Metabolic Activation: RAT, LIVER, S-9, AROCLOR 1254, Method: STANDARD PLATE) was “inactive; negative”, the mutagenic call (Test System: AMES SALMONELLA TYPHIMURIUM, Strain/Indicator: TA2638, Metabolic Activation: NONE, Method: STANDARD PLATE) was “inactive; negative” and the mutagenic call (Test System: AMES SALMONELLA TYPHIMURIUM, Strain/Indicator: TA2638, Metabolic Activation: RAT, LIVER, S-9, AROCLOR 1254, Method: STANDARD PLATE) was “inactive; negative”. The mutagenic call (Test System: AMES SALMONELLA TYPHIMURIUM, Strain/Indicator: TA2638, Metabolic Activation: RAT, LIVER, S-9, Method: STANDARD PLATE) was “inactive; negative”, the mutagenic call (Test System: AMES SALMONELLA TYPHIMURIUM, Strain/Indicator: TA2638, Method: STANDARD PLATE) was “inactive; negative” and the mutagenic call (Test System: CHINESE HAMSTER OVARY, Strain/Indicator: CHO-K1-BH4 (HGPRT), Metabolic Activation: NONE, Method: SUSPENSION/PLATE) was “inactive; negative”. For the same compound, the mutagenic call (Test System: CHINESE HAMSTER OVARY, Strain/Indicator: CHO-K1-BH4 (HGPRT), Metabolic Activation: RAT, LIVER, S-9, AROCLOR, Method: SUSPENSION/PLATE) was “inactive; negative”, the mutagenic call (Test System: E. COLI, Strain/Indicator: WP2 UVRA, Metabolic Activation: NONE, Method: STANDARD PLATE) was “inactive; negative” and the mutagenic call (Test System: E. COLI, Strain/Indicator: WP2 UVRA, Metabolic Activation: RAT, LIVER, S-9, AROCLOR 1254, Method: STANDARD PLATE) was “inactive; negative”. For the same compound, the mutagenic call (Test System: E. COLI, Strain/Indicator: WP2 UVRA, Metabolic Activation: RAT, LIVER, S-9, Method: STANDARD PLATE) was “inactive; negative”, the mutagenic call (Test System: E. COLI, Strain/Indicator: WP2 UVRA, Method: STANDARD PLATE) was “inactive; negative” and the mutagenic call (Test System: MOUSE LYMPHOMA, Strain/Indicator: L5178Y (TK+/+)/TRIFLUOROTHYMIDINE, Metabolic Activation: RAT LIVER S-9, AROCLOR 1254, Method: SUSPENSION/PLATE) was “inactive; negative”. For the same compound, the mutagenic call (Test System: MOUSE LYMPHOMA, Strain/Indicator: L5178Y (TK+/TK-), Metabolic Activation: NONE, Method: SUSPENSION/PLATE) was “inactive; negative”, the mutagenic call (Test System: MOUSE LYMPHOMA, Strain/Indicator: L5178Y (TK+/TK-), Metabolic Activation: RAT, LIVER, S-9, AROCLOR 1242 AND 1254 (2:1), Method: SUSPENSION/PLATE) was “active; positive” and the mutagenic call (Test System: MOUSE LYMPHOMA, Strain/Indicator: L5178Y (TK+/TK-), Metabolic Activation: RAT, LIVER, S-9, AROCLOR 1242 AND 1254 (2:1 MIXTURE), Method: SUSPENSION/PLATE) was “active; positive”. For the same compound, the mutagenic call (Test System: MOUSE LYMPHOMA, Strain/Indicator: L5178Y (TK+/TK-), Metabolic Activation: RAT, LIVER, S-9, AROCLOR 1254, Method: SUSPENSION/PLATE) was “inactive; negative” and the mutagenic call (Test System: UDS RAT HEPATOCYTES, Strain/Indicator: THY INCORP, Metabolic Activation: NONE, Method: AUTORADIOGRAPHY (SERUM-FREE MEDIA)) was “active; positive”.
